Measured values as given in ChEMBL document CHEMBL1201862, “PubChem BioAssay data set” (2004).
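Tested at 5 concentrations; 48 h exposure; 96-well plates; endpoints linearly interpolated, else capped at highest concentration. Abbreviation: GI50, concentration required for 50% inhibition of growth.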 The source made the active and inactive calls. Rule as the data show it: active = GI50 up to about 1.1 µM and inactive = higher.

Columns and labels:
Test in all cases: growth of human tumour cells (NCI), 48 h
786-0 = test system: 786-0
A498 = test system: A498
A549 = test system: A549
ACHN = test system: ACHN
BT-549 = test system: BT-549
CAKI-1 = test system: CAKI-1
COLO 205 = test system: COLO 205
EKVX = test system: EKVX
HCC 2998 = test system: HCC 2998
HCT-116 = test system: HCT-116
HCT-15 = test system: HCT-15
HOP-62 = test system: HOP-62
HOP-92 = test system: HOP-92
HT-29 = test system: HT-29
Hs-578T = test system: Hs-578T
K562 = test system: K562
KM12 = test system: KM12
LOX IMVI = test system: LOX IMVI
M14 = test system: M14
MCF7 = test system: MCF7
MDA-MB-231 = test system: MDA-MB-231
MDA-MB-435 = test system: MDA-MB-435
MDA-N = test system: MDA-N
MOLT-4 = test system: MOLT-4
Malme-3M = test system: Malme-3M
NCI-H226 = test system: NCI-H226
NCI-H23 = test system: NCI-H23
NCI-H522 = test system: NCI-H522
NCI/ADR-RES = test system: NCI/ADR-RES
OVCAR-4 = test system: OVCAR-4
OVCAR-5 = test system: OVCAR-5
OVCAR-8 = test system: OVCAR-8
PC-3 = test system: PC-3
SF-268 = test system: SF-268
SF-295 = test system: SF-295
SK-MEL-28 = test system: SK-MEL-28
SK-MEL-2 = test system: SK-MEL-2
SK-MEL-5 = test system: SK-MEL-5
SK-OV-3 = test system: SK-OV-3
SN12C = test system: SN12C
SNB-19 = test system: SNB-19
SR = test system: SR
T47D = test system: T47D
TK-10 = test system: TK-10
U-251 = test system: U-251
UACC-257 = test system: UACC-257
UACC-62 = test system: UACC-62
UO-31 = test system: UO-31
CCRF-CEM = test system: CCRF-CEM
HL-60 = test system: HL-60
IGROV-1 = test system: IGROV-1
NCI-H460 = test system: NCI-H460
OVCAR-3 = test system: OVCAR-3
RPMI-8226 = test system: RPMI-8226
RXF 393 = test system: RXF 393
SF-539 = test system: SF-539
SNB-75 = test system: SNB-75
SW-620 = test system: SW-620
DU-145 = test system: DU-145

SMILES: COc1ccccc1N1C(=O)/C(=C\c2ccccc2)SC1c1cc(OC)c(OC)c(OC)c1 (configuration not stated)
- GI50 (786-0): 32.2 µM (inactive)
- GI50 (A498): 55.6 µM (inactive)
- GI50 (A549): 40.7 µM (inactive)
- GI50 (ACHN): 74.1 µM (inactive)
- GI50 (BT-549): 34.8 µM (inactive)
- GI50 (CAKI-1): 34.2 µM (inactive)
- GI50 (COLO 205): 35.9 µM (inactive)
- GI50 (EKVX): 37.8 µM (inactive)
- GI50 (HCC 2998): 37.3 µM (inactive)
- GI50 (HCT-116): 31.8 µM (inactive)
- GI50 (HCT-15): 32.3 µM
- GI50 (HOP-62): 46.7 µM (inactive)
- GI50 (HOP-92): 34.5 µM (inactive)
- GI50 (HT-29): 33.3 µM (inactive)
- GI50 (Hs-578T): 33.7 µM (inactive)
- GI50 (K562): 41.7 µM (inactive)
- GI50 (KM12): 32.1 µM (inactive)
- GI50 (LOX IMVI): 21.9 µM (inactive)
- GI50 (M14): 35.1 µM (inactive)
- GI50 (MCF7): 32.3 µM (inactive)
- GI50 (MDA-MB-231): 23.2 µM (inactive)
- GI50 (MDA-MB-435): 17.9 µM (inactive)
- GI50 (MDA-N): 17.9 µM (inactive)
- GI50 (MOLT-4): 35 µM (inactive)
- GI50 (Malme-3M): 45.5 µM (inactive)
- GI50 (NCI-H226): > 100 µM (inactive)
- GI50 (NCI-H23): 43.9 µM (inactive)
- GI50 (NCI-H522): 22.2 µM (inactive)
- GI50 (NCI/ADR-RES): 32.1 µM (inactive)
- GI50 (OVCAR-4): 53.5 µM (inactive)
- GI50 (OVCAR-5): 62.5 µM (inactive)
- GI50 (OVCAR-8): 42 µM (inactive)
- GI50 (PC-3): 21.4 µM (inactive)
- GI50 (SF-268): 48.5 µM (inactive)
- GI50 (SF-295): 30.1 µM (inactive)
- GI50 (SK-MEL-28): 54 µM (inactive)
- GI50 (SK-MEL-2): 7.06 µM (inactive)
- GI50 (SK-MEL-5): 27.6 µM (inactive)
- GI50 (SK-OV-3): 42.3 µM (inactive)
- GI50 (SN12C): 17.6 µM (inactive)
- GI50 (SNB-19): 66.8 µM (inactive)
- GI50 (SR): 33.7 µM (inactive)
- GI50 (T47D): 5.97 µM (inactive)
- GI50 (TK-10): > 100 µM (inactive)
- GI50 (U-251): 27.1 µM (inactive)
- GI50 (UACC-257): 83.4 µM (inactive)
- GI50 (UACC-62): 30.2 µM (inactive)
- GI50 (UO-31): 45.4 µM (inactive)

SMILES: O=C(O)c1ccccc1/C=N/N=C1NCCN1
- GI50 (786-0): > 100 µM (inactive)
- GI50 (A498): 26.8 µM (inactive)
- GI50 (A549): > 100 µM (inactive)
- GI50 (ACHN): 98.9 µM (inactive)
- GI50 (BT-549): > 100 µM (inactive)
- GI50 (CCRF-CEM): > 100 µM (inactive)
- GI50 (COLO 205): > 100 µM (inactive)
- GI50 (EKVX): > 100 µM (inactive)
- GI50 (HCC 2998): > 100 µM (inactive)
- GI50 (HCT-116): > 100 µM (inactive)
- GI50 (HCT-15): > 100 µM
- GI50 (HL-60): 49.4 µM (inactive)
- GI50 (HOP-62): > 100 µM (inactive)
- GI50 (HOP-92): 22.7 µM (inactive)
- GI50 (HT-29): > 100 µM (inactive)
- GI50 (Hs-578T): > 100 µM (inactive)
- GI50 (IGROV-1): > 100 µM (inactive)
- GI50 (K562): > 100 µM (inactive)
- GI50 (KM12): > 100 µM (inactive)
- GI50 (LOX IMVI): > 100 µM (inactive)
- GI50 (M14): > 100 µM (inactive)
- GI50 (MCF7): 91.2 µM (inactive)
- GI50 (MDA-MB-231): > 100 µM (inactive)
- GI50 (MDA-MB-435): > 100 µM (inactive)
- GI50 (MDA-N): > 100 µM (inactive)
- GI50 (MOLT-4): > 100 µM (inactive)
- GI50 (Malme-3M): 88.1 µM (inactive)
- GI50 (NCI-H226): > 100 µM (inactive)
- GI50 (NCI-H23): > 100 µM (inactive)
- GI50 (NCI-H460): > 100 µM (inactive)
- GI50 (NCI-H522): 71.8 µM (inactive)
- GI50 (NCI/ADR-RES): > 100 µM (inactive)
- GI50 (OVCAR-3): > 100 µM (inactive)
- GI50 (OVCAR-4): > 100 µM (inactive)
- GI50 (OVCAR-5): > 100 µM (inactive)
- GI50 (OVCAR-8): > 100 µM (inactive)
- GI50 (PC-3): > 100 µM (inactive)
- GI50 (RPMI-8226): 39.7 µM (inactive)
- GI50 (RXF 393): > 100 µM (inactive)
- GI50 (SF-268): 97.9 µM (inactive)
- GI50 (SF-295): > 100 µM (inactive)
- GI50 (SF-539): > 100 µM (inactive)
- GI50 (SK-MEL-28): > 100 µM (inactive)
- GI50 (SK-MEL-2): 59.6 µM (inactive)
- GI50 (SK-MEL-5): > 100 µM (inactive)
- GI50 (SK-OV-3): 61.5 µM (inactive)
- GI50 (SNB-19): > 100 µM (inactive)
- GI50 (SNB-75): > 100 µM (inactive)
- GI50 (SR): 88.5 µM (inactive)
- GI50 (SW-620): > 100 µM (inactive)
- GI50 (T47D): > 100 µM (inactive)
- GI50 (TK-10): 46.8 µM (inactive)
- GI50 (U-251): > 100 µM (inactive)
- GI50 (UACC-257): 84.1 µM (inactive)
- GI50 (UACC-62): > 100 µM (inactive)
- GI50 (UO-31): 44.4 µM (inactive)

SMILES: Cc1c2c(cc3c1C(=O)C(O)=C([C@@H](C)CO)C3=O)C(C)(C)CCC2
- GI50 (786-0): 32.3 µM (inactive)
- GI50 (A498): 25.6 µM (inactive)
- GI50 (A549): 29.8 µM (inactive)
- GI50 (BT-549): 35.2 µM (inactive)
- GI50 (CAKI-1): 33.4 µM (inactive)
- GI50 (CCRF-CEM): 10.1 µM (inactive)
- GI50 (COLO 205): 27 µM (inactive)
- GI50 (DU-145): 30.5 µM (inactive)
- GI50 (EKVX): 15.6 µM (inactive)
- GI50 (HCT-116): 25.7 µM (inactive)
- GI50 (HCT-15): 29.4 µM
- GI50 (HOP-62): 22.4 µM (inactive)
- GI50 (HOP-92): 35 µM (inactive)
- GI50 (HT-29): 15.8 µM (inactive)
- GI50 (Hs-578T): 16.7 µM (inactive)
- GI50 (IGROV-1): 29 µM (inactive)
- GI50 (K562): 38.7 µM (inactive)
- GI50 (KM12): 14.3 µM (inactive)
- GI50 (LOX IMVI): 28.3 µM (inactive)
- GI50 (M14): 23.2 µM (inactive)
- GI50 (MDA-MB-231): 23.4 µM (inactive)
- GI50 (MDA-MB-435): 26.9 µM (inactive)
- GI50 (MDA-N): 30.7 µM (inactive)
- GI50 (MOLT-4): 13.4 µM (inactive)
- GI50 (Malme-3M): 22.8 µM (inactive)
- GI50 (NCI-H226): 33.8 µM (inactive)
- GI50 (NCI-H23): 17.7 µM (inactive)
- GI50 (NCI-H522): 21.3 µM (inactive)
- GI50 (NCI/ADR-RES): 23.3 µM (inactive)
- GI50 (OVCAR-3): 27 µM (inactive)
- GI50 (OVCAR-4): 31.3 µM (inactive)
- GI50 (OVCAR-5): 36.9 µM (inactive)
- GI50 (OVCAR-8): 25.5 µM (inactive)
- GI50 (PC-3): 19.1 µM (inactive)
- GI50 (RPMI-8226): 31.3 µM (inactive)
- GI50 (RXF 393): 32.1 µM (inactive)
- GI50 (SF-268): 15 µM (inactive)
- GI50 (SF-295): 22.3 µM (inactive)
- GI50 (SK-MEL-28): 28 µM (inactive)
- GI50 (SK-MEL-2): 17.1 µM (inactive)
- GI50 (SK-MEL-5): 22.2 µM (inactive)
- GI50 (SK-OV-3): 32.7 µM (inactive)
- GI50 (SN12C): 27.7 µM (inactive)
- GI50 (SNB-19): 5.07 µM (inactive)
- GI50 (SNB-75): 21.6 µM (inactive)
- GI50 (SR): 2.84 µM (inactive)
- GI50 (SW-620): 30.2 µM (inactive)
- GI50 (T47D): 32.8 µM (inactive)
- GI50 (TK-10): 42.4 µM (inactive)
- GI50 (U-251): 17.5 µM (inactive)
- GI50 (UACC-257): 35.6 µM (inactive)
- GI50 (UACC-62): 28.2 µM (inactive)
- GI50 (UO-31): 17.5 µM (inactive)
